The values below come from US6518012B1, “Method for regulating the expression of MHC antigens and CD40 by inhibitors of histone deacetylation” (Health Research, Inc., priority 1999, dated 2003).

One data set concerns IAα mRNA. Put plainly: MHC class II (IAα) mRNA by RT-PCR and real-time PCR in mouse tumor models. The format is cell-based. Conditions: for fold increase in Ia (Iα): real-time PCR; for class II mRNA activation: titration with different concentrations of TSA for 12 hours, RT-PCR and real-time PCR. The method, then:
To determine the effect of DAIs on HLA-DRα mRNA, cytoplasmic RNA was isolated from untreated and treated human trophoblast cell line JAR using standard techniques (RNeasy System from Qiagen). Standard PCR was performed using primers for DR and CIITA (Murphy et al., 1998, Reprod Dev., Chin et al., 1994, Immunity 1:687-697). Other primers used included human and mouse GAPDH (Clontech) and forward primer 5′-[…]-3′ (SEQ ID NO:25) and reverse primer 5′-[…]-3′ (SEQ ID NO:26) for mouse CIITA. PCR products were amplified with GOLD Taq for 10 min at 95° C., then 95° C. for 30 sec, 60° C. for 60 sec (25-45 cycles), then an extension at 60° C. for 10 min.
(§1) In order to obtain more quantitative information on fold changes in DR and CIITA after treatment with the deacetylase inhibitors, a real time fluorescence technique capable of quantitating low copy numbers of transcripts was carried out as follows. Oligonucleotide primers and TaqMan 5′-6-FAM and 3′-TAMRA-labeled probes were synthesized in the RPCI Biopolymer Facility. Primer and probe sequences are listed under Sequence Listing and also in FIG. 9. Sequences were designed using standard software (PrimerExpress software, PE Biosystems) except for human GAPDH.
(§2) Realtime PCR reactions contained TaqMan Universal PCR Master Mix (PE Biosystems), primers at 300 nM, and probes at optimal concentrations (150-225 nM depending on gene). Reactions were carried out on an ABI PRISM 7700 Sequence Detection System (PE Biosystems). Cycling conditions were 50° C. for 2 min, 95° C. for 10 min, then 60 cycles of 95° C. for 15 sec, 60° C. for 1 min. PCR samples were run in triplicate. The detection system and quantitative PCR was carried out as described by Williamson et al. (1995, Genet Res. 65:83-93). The threshold cycle number CT corresponded to the cycle number, at which the fluorescent emission reaches 10 standard deviations above the mean fluorescent emission, measured during the early ‘baseline’ cycles of the PCR. The CT values for triplicates were averaged and normalized to GAPDH levels. […] In such cases, in order to calculate a minimum fold change for other samples in the same group, the CT value was arbitrarily set at 40. […] Assuming reverse transcription efficiencies were approximately the same for each sample, relative amounts of mRNA using the comparative CT method. Fold changes in mRNA levels were calculated as 2^x where x=the difference between normalized CT values of the control and experimental samples.
To determine if the effect of DAIs on MHC class II was manifested in other tumors and in different species, the effect of TSA was tested on four commonly used mouse tumor models: the SaI fibrosarcoma, the Colon 26 adenocarcinoma, the J558 plasmacytoma and the P815 mastocytoma. TSA induced class II in all four mouse tumors examined, while the effects of IFNγ were variable (FIG. 4). Data presented for each cell line represents optimal incubation time and concentration of TSA and is compared with 100 U/ml of IFNγ at the same time point. Numbers over bars represents fold changes. […] Colon 26 and J558 that differed strikingly in their reactivity to IFNγ were selected for further evaluation. RT-PCR and real time PCR was used to examine induction of CIITA and IAα by TSA and IFNγ. A20, a constitutively positive B cell line was used as a positive control. The results are shown in FIGS. 5A-D. The numbers over bars represent fold changes. […] Since the classical IFNγ inducible genes IRF-1 and GBP as well as MHC class I mRNA were not induced by IFNγ in J558 (data not shown), this cell line may have a signaling defect in the IFNγ pathway. Unexpectedly however, and unlike either the MC or Colon 26 cells, TSA induced both CIITA (102-fold) and Iα (537-fold) in J558 as shown in FIGS. 5B and 5D.

The subject of another data set is HLA-DRα mRNA. Put plainly: HLA-DRα mRNA by standard PCR and real-time PCR in human cell lines JAR and SK-N-MC. The format is cell-based. Particulars: for fold increase in expression of DR: MC cells, real time PCR, 100 nM TSA 24 hr, NaBu 1 mM 48 hr, IFNγ any concentration or time point; for levels of mRNA for HLA-DRα (DR): SK-N-MC, RT-PCR, 100 nM TSA 24 hours, 1 mM NaBu 48 hours, IFNγ. A general note: Quantitative PCR measures a nucleic acid by following its amplification.

The subject of data set [1] is MHC class II protein on the cell surface. In words: Cell surface MHC class II protein by flow cytometry on SK-N-MC. The class given is cell-based, human. Particulars: for expression of MHC class II protein on the cell surface: flow cytometry, 50 nM TSA for 48 hours, IFNγ 100 U/ml same time. For orientation: A flow cytometer gives signals particle by particle.
In data set [2] the test system is CD40 mRNA. Put plainly: CD40 mRNA by real-time PCR in SK-N-MC. Particulars: MC cells, at 24 hours. The format is cell-based, human.
Data set [3] deals with CD40 mRNA. Put plainly: CD40 mRNA by real-time PCR in Colon 26 and J558. The format is cell-based, mouse. As to the method:
as §1, §2
This embodiment illustrates the effect of DAIs on costimulatory molecules. Because of the importance of costimulatory molecules in the cellular activation mechanism involving MHC complexes, the effect of DAIs on the expression of B7-1, B7-2 and CD40 genes was investigated by real-time PCR as well as RT-PCR. While no consistent changes in B7-1 and B7-2 were detected (data not shown), CD40 expression was enhanced by TSA in all three cell types (FIGS. 7A, B, C). MC cells constitutively expressed low levels of CD40 and IFNγ enhanced CD40 mRNA levels 5-fold while TSA elicited a 12-fold increase at 24 hours (FIG. 7A). […] GADPH mRNA remained essentially unchanged with both the primer sites used in RT-PCR and real-time PCR. The lack of induction of CD40 by IFNγ in J558 cells is consistent with the failure of IFNγ to activate other IFNγ inducible genes.

Setting [4] is: Colon 26, 60 cycles, 100 U/ml IFNγ for 24 hours, TSA (12 and 48 hours).
Where [5] appears, read: J558, TSA 25 nM for 24 hours, IFNγ.

Turning to `CC(/C=C/C(=O)NO)=C\[C@@H](C)C(=O)c1ccc(N(C)C)cc1` [TSA, Trichostatin A], in the data set with IAα mRNA (Colon 26), the “fold increase in Ia (Iα)” value turned out to be 74 fold. Besides, the “Iα (class II) fold induction” value in the data set on IAα mRNA (J558, RT-PCR and real-time PCR (FIGS. 5B and 5D)) is on record as 537 fold. For the same compound, the “class II mRNA activation” value in the data set with IAα mRNA (J558) was “induced”. For the same compound, the “induction of class II mRNA” value in the data set on IAα mRNA (all four mouse tumors (SaI, Colon 26, J558, P815), optimal incubation time and concentration of TSA) is “induced”. Further, the “fold increase in expression of DR” value in the data set with HLA-DRα mRNA came out at 108 fold. Also, the “levels of mRNA for HLA-DRα (DR)” value with HLA-DRα mRNA is on record as “substantial increase”. Besides, the “cells positive for class II expression” value in data set [1] (TSA concentration used in FIG. 8 (50 nM for 48 hours)) was found to be 29%. Also, in data set [1], the “expression of MHC class II protein on the cell surface” value was “significantly induced”. In addition, the “CD40 mRNA fold increase” value in the data set on CD40 mRNA [2] amounted to 12 fold; in the data set with CD40 mRNA [3] (setting [4]) it was 147 fold; with CD40 mRNA [3] (setting [5]), 161 fold.
Turning to “IFNγ: gamma-interferon, cytokine used as comparator at 100 U/ml”, the “fold increase in Ia (Iα)” value in the data set on IAα mRNA (Colon 26) is given as 58 fold. The “expression of class II” value in the data set on IAα mRNA (Colon 26, standard RT-PCR at 35 cycles) was “induced”. Moreover, the “induction of class II mRNA” value with IAα mRNA (J558, 100 U/ml IFNγ (FIG. 4)) is listed as “failed to induce”. The “class II mRNA activation” value in the data set on IAα mRNA (J558) is “failed to activate”. Further, the “class II mRNA” value in the data set with IAα mRNA (P815, 100 U/ml IFNγ (FIG. 4)) is on record as “only weakly enhanced”. Also, in the data set on IAα mRNA (SaI and Colon 26, 100 U/ml IFNγ), the “fold-increases in class II mRNA compared with TSA” value is on record as “nearly equivalent fold-increases”. Also, the “fold increase in expression of DR” value in the data set on HLA-DRα mRNA is recorded as “did not stimulate”. In addition, the “levels of mRNA for HLA-DRα (DR)” value in the data set on HLA-DRα mRNA was “cannot be induced”. Moreover, in data set [1], the “expression of MHC class II protein on the cell surface” value was “did not induce”. Also, the “CD40 mRNA fold increase” value was 5 fold in the data set on CD40 mRNA [2], “undetectable” in the data set on CD40 mRNA [3] (setting [4]) and “did not change” in the data set on CD40 mRNA [3] (setting [5]).
